Here are results for three compounds from ChEMBL document CHEMBL4321842 (J Med Chem, 2019).

The target of data set [1] is T1, Discoidin domain-containing receptor 2 (Homo sapiens, UniProt Q16832).
T1 sequence (Q16832 whole entry): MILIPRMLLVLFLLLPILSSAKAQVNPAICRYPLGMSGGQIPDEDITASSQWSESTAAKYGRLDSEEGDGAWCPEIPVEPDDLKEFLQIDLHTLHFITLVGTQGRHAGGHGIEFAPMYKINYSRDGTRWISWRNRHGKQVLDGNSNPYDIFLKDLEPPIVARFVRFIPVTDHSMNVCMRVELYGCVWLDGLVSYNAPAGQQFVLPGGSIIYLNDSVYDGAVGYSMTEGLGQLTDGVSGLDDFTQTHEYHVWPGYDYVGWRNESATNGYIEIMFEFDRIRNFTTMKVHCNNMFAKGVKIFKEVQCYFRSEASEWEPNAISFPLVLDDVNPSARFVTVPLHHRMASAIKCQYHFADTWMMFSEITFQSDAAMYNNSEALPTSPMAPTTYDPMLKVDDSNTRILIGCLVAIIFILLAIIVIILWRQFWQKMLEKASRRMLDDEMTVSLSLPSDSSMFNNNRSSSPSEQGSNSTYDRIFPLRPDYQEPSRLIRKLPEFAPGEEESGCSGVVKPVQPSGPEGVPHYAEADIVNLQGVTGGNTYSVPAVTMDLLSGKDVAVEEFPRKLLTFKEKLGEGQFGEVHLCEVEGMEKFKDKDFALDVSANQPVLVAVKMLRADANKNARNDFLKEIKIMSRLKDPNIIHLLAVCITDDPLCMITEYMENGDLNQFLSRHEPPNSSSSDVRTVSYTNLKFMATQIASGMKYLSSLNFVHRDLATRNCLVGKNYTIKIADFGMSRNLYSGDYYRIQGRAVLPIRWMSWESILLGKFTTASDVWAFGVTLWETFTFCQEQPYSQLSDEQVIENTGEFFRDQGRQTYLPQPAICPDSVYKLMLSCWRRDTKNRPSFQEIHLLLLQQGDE
Nature of the data set: Inhibition of DDR2 (unknown origin) expressed in human HEK293 cells incubated for 2 hrs followed by NanoBRET NanoGlo Substrate addition by NanoBRET assay. Type of data set: cell-based. (In BRET a luciferase serves as donor, and the signal depends on an acceptor being close.)

Data set [2] concerns the target Mitogen-activated protein kinase 14 (Homo sapiens, UniProt Q16539). Nature of the data set: Inhibition of full-length human C-terminal NanoLuc-tagged P38 alpha MAPK expressed in human HEK293T cells incubated for 2 hrs followed by NanoBRET NanoGlo Substrate addition by NanoBRET assay. Type of data set: cell-based.
Data set [3] deals with T2, Ribosomal protein S6 kinase alpha-6 (Homo sapiens, UniProt Q9UK32). The data set is described as follows: Inhibition of RSK4 kinase domain 1 (unknown origin) expressed in human HEK293 cells incubated for 2 hrs followed by NanoBRET NanoGlo Substrate addition by NanoBRET assay. Type of data set: cell-based.
In data set [4] the target is T3, Myosin light chain kinase family member 4 (Homo sapiens, UniProt Q86YV6).
T3 sequence (Q86YV6 whole entry): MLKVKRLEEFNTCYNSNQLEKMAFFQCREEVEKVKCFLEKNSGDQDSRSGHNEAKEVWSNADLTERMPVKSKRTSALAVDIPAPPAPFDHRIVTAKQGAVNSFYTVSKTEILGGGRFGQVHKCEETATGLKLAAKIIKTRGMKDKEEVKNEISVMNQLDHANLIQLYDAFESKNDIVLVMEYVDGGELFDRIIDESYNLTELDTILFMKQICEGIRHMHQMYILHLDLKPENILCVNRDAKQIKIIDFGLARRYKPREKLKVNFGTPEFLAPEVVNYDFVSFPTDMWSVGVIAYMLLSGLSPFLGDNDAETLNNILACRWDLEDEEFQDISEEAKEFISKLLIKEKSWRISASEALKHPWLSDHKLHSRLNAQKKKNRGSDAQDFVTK
Nature of the data set: Inhibition of MYLK4 (unknown origin) expressed in human HEK293 cells incubated for 2 hrs followed by NanoBRET NanoGlo Substrate addition by NanoBRET assay. It is filed as cell-based.

Data set [5] has as its system Blood. The data set is described as follows: Inhibition of LPS-induced TNFalpha production in human whole blood at 10 uM preincubated for 15 mins followed by LPS stimulation and measured after 2.5 hrs by ELISA relative to control. It is filed as functional. For orientation: An ELISA detects its analyte on a solid surface through an enzyme-linked reagent.
Data set [6] concerns Blood. The data set is described as follows: Inhibition of LPS-induced TNFalpha production in human whole blood preincubated for 15 mins followed by LPS stimulation and measured after 2.5 hrs by ELISA. It is filed as functional, tissue-based.
The target in data set [7] is Epithelial discoidin domain-containing receptor 1 (Homo sapiens, UniProt Q08345). The data set is described as follows: Inhibition of DDR1 (unknown origin) expressed in human HEK293 cells incubated for 2 hrs followed by NanoBRET NanoGlo Substrate addition by NanoBRET assay. Type of data set: cell-based.
For data set [8], the target named is T4, Mast/stem cell growth factor receptor Kit (Homo sapiens, UniProt P10721). Nature of the data set: Inhibition of KIT (unknown origin) expressed in human HEK293 cells incubated for 2 hrs followed by NanoBRET NanoGlo Substrate addition by NanoBRET assay. It is filed as cell-based.
In data set [9] the target is T5, Mitogen-activated protein kinase 11 (Homo sapiens, UniProt Q15759). The data set is described as follows: Inhibition of p38-beta (unknown origin) expressed in human HEK293 cells incubated for 2 hrs followed by NanoBRET NanoGlo Substrate addition by NanoBRET assay. Type of data set: cell-based.
The target of data set [10] is T6, Myosin light chain kinase family member 4 (Homo sapiens) (UniProt Q86YV6).
T6 sequence (whole entry): T3 sequence (Q86YV6 whole entry)
The data set is described as follows: Inhibition of wild-type human partial length MYLK4 (V79 to S380 residues) expressed in bacterial expression system at 1 uM by Kinomescan method relative to control.

Data set [11] can be described thus: Metabolic stability in human liver microsomes assessed as compound degradation incubated for 50 mins by LC/MS analysis. Type of data set: ADME, Microsome. (In general: Liver microsomes are a subcellular fraction often used to study metabolism.)
Data set [12] has as its target T7, Discoidin domain-containing receptor 2 (Homo sapiens) (UniProt Q16832).
T7 sequence (whole entry): T1 sequence (Q16832 whole entry)
The data set is described as follows: Inhibition of wild-type human partial length DDR2 (V555 to E855 residues) expressed in mammalian expression system at 1 uM by Kinomescan method relative to control.

The target in data set [13] is T5, Mitogen-activated protein kinase 11. Particulars: 1 uM.
Description: Inhibition of wild-type human full length p38-beta (M1 to Q364 residues) expressed in bacterial expression system at 1 uM by Kinomescan method relative to control
The target in data set [14] is T4, Mast/stem cell growth factor receptor Kit. The data set is described as follows: Inhibition of wild-type human partial length KIT (I571 to D952 residues) expressed in bacterial expression system at 1 uM by Kinomescan method relative to control.
Data set [15] deals with T5, Mitogen-activated protein kinase 11. Nature of the data set: Inhibition of recombinant human His-tagged P38beta MAPK (1 to 364 residues) expressed in Escherichia coli incubated for 60 mins by [gamma-33P]ATP based scintillation counting method.
For data set [16], the target named is Mitogen-activated protein kinase kinase kinase 20 (Homo sapiens) (UniProt Q9NYL2). Nature of the data set: Inhibition of wild-type human partial length ZAK (M1 to L331 residues) expressed in bacterial expression system at 1 uM by Kinomescan method relative to control.
For data set [17], the target named is T2, Ribosomal protein S6 kinase alpha-6. Nature of the data set: Inhibition of wild-type human partial length N-terminal RSK4 kinase domain 1 (M1 to E397 residues) expressed in mammalian expression system at 1 uM by Kinomescan method relative to control.
The nature of data set [18]: Metabolic stability in human liver microsomes assessed as compound degradation incubated for 240 mins by LC/MS analysis. It is filed as ADME, Microsome. The following applies: read-out: Drug degradation.

SMILES strings stand for the structures.

T2 sequence (Q9UK32 whole entry, the tested form may be a part): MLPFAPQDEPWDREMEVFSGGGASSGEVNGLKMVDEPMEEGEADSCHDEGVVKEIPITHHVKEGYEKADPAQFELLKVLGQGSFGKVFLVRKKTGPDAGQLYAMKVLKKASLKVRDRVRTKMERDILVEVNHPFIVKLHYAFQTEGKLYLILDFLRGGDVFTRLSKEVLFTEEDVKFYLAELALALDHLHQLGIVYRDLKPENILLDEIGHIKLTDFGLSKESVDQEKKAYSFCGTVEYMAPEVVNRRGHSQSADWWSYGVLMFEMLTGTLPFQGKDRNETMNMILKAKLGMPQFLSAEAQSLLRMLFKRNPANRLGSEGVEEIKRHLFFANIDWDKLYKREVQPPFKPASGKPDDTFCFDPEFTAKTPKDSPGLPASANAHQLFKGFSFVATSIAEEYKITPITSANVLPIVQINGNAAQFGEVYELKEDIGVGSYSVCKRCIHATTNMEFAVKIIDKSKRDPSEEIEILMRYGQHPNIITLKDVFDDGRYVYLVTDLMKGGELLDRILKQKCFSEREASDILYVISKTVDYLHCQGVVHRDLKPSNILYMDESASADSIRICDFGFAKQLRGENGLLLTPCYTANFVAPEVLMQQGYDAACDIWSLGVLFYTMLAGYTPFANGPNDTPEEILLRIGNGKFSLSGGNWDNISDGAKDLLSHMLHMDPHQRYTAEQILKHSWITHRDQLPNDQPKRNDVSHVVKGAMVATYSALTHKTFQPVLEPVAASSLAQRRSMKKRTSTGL
T5 sequence (Q15759 whole entry): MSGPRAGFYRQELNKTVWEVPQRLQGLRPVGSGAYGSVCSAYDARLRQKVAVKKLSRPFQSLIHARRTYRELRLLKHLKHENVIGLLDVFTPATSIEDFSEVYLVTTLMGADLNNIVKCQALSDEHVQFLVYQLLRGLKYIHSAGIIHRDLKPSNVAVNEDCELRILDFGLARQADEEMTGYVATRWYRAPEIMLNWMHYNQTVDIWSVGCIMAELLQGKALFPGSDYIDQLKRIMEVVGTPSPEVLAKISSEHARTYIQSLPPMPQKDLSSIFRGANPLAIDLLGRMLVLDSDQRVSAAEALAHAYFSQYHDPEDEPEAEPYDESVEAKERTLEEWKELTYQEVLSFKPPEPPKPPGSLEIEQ
T4 sequence (P10721 whole entry): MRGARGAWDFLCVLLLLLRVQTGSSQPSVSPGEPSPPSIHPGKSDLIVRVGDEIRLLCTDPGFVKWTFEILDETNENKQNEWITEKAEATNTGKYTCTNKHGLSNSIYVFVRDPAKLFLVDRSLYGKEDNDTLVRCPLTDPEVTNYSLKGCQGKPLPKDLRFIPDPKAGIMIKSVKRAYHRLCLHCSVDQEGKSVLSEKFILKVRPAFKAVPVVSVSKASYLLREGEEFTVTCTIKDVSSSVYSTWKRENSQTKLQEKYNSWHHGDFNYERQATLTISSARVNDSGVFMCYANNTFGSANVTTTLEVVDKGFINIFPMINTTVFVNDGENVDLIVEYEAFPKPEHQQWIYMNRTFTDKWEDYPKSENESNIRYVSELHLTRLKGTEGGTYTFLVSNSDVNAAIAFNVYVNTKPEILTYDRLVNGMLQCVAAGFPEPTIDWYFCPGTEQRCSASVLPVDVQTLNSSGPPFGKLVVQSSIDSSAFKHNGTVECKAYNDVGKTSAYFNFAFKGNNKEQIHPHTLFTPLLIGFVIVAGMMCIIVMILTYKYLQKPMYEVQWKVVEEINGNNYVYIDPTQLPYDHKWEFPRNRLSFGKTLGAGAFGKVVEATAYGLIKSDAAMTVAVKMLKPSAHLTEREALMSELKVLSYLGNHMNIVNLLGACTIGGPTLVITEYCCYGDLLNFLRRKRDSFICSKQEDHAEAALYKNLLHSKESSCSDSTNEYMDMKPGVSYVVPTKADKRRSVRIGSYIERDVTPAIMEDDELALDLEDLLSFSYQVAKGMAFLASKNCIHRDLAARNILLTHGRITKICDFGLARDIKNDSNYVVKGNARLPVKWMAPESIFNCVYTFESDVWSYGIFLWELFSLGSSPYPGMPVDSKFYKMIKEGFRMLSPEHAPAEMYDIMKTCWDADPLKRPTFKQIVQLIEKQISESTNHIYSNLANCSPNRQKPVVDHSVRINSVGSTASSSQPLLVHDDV
Epithelial discoidin domain-containing receptor 1, sequence (Q08345 whole entry, the tested form may be a part): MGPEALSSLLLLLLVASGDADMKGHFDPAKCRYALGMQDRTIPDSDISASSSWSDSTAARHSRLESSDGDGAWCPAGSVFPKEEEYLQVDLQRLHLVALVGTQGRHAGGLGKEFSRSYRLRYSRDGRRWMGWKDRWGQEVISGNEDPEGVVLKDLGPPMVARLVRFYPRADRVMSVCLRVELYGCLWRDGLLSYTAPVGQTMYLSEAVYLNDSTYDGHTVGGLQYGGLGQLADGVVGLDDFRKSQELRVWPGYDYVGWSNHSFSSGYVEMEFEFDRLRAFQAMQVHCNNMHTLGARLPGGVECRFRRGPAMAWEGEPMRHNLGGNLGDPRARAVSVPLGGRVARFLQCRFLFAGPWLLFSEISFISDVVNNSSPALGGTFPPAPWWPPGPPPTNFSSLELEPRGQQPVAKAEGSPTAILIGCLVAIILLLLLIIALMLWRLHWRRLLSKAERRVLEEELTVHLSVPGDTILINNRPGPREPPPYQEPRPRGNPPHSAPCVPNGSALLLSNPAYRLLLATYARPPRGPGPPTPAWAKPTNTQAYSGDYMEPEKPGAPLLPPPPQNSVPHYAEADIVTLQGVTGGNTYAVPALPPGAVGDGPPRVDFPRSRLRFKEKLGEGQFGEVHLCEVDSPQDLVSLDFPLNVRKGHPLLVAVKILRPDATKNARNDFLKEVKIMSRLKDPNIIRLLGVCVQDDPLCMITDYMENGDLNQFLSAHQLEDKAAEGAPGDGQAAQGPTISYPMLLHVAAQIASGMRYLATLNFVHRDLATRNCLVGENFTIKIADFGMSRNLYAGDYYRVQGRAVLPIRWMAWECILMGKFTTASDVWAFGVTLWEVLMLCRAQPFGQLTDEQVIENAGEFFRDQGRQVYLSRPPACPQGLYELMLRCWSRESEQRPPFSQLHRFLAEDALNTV
Mitogen-activated protein kinase 14, sequence (Q16539 whole entry, the tested form may be a part): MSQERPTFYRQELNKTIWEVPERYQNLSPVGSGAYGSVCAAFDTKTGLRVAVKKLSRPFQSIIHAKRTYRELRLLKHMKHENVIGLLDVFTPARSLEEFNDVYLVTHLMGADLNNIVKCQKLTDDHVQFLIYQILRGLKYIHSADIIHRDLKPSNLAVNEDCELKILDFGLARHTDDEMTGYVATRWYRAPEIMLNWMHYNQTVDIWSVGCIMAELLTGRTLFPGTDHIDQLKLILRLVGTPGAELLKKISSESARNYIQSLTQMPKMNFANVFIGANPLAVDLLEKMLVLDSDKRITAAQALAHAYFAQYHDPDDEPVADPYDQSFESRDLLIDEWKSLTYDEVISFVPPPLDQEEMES
Mitogen-activated protein kinase kinase kinase 20 (Homo sapiens), sequence (Q9NYL2 whole entry, looked up, the tested form may be a part): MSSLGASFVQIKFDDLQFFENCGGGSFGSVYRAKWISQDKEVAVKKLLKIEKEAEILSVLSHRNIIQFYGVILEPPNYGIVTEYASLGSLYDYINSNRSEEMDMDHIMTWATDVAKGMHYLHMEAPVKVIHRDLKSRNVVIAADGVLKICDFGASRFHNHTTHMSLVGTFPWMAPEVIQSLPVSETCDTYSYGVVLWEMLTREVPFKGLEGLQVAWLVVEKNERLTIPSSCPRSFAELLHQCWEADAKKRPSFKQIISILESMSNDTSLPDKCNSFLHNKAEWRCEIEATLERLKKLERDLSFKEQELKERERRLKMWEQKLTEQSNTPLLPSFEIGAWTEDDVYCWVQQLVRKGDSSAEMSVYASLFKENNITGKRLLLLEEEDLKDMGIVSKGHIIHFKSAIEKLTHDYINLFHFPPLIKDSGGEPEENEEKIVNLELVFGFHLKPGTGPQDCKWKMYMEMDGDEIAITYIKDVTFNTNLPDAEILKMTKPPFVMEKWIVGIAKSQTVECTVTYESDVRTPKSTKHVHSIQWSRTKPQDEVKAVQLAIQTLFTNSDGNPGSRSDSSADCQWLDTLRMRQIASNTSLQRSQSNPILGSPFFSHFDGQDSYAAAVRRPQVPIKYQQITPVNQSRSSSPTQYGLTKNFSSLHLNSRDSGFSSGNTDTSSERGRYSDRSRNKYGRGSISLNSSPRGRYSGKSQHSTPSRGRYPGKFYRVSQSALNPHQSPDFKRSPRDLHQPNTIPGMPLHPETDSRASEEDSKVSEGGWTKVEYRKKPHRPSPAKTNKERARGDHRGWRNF

A word on the IC50: it is the concentration that inhibits the measured activity by half. For orientation: inhibition means the drop in the measured response relative to a control, in per cent. Consider `O=C(NCCCC1CCCCC1)c1ccc(CNC(=O)c2cnn(-c3ccccc3)c2C(F)(F)F)cc1` [SR-321], for which the IC50 is 220 nM in data set [1]; 13 µM in [2]; over 20 µM in data set [3]; over 20 µM in data set [4]; over 10 µM with Blood [6]; 13 µM in [7]. Further, the half-maximal inhibitory concentration (IC50) was over 20 µM in [8] and 11 µM in data set [9]. In the data set with Blood [5], this compound came in with an inhibition at 10 µM of 6.35%.
On to `Nc1c(C(=O)NCc2ccc(C(=O)NCCCC3CCCCC3)cc2)cnn1-c1ccccc1` [SR-318], for which the 50% inhibitory concentration (IC50) in data set [1] was 5600 nM; in data set [3], 14 µM; in data set [4] it was 10 µM; in data set [15] it was 32 nM; in data set [7], 3 µM; in data set [8] it was 8.5 µM. The same compound came in with an IC50 in [9] of 0.01 µM. Also, the inhibition in [10] is 31%; in data set [12], 31%; in [13], 0%; in data set [14], 7.7%; in [16], 8.8%; in [17], 29%. Further, the Stability entry in data set [11] was “Stable”. Moreover, the inhibition at 10 µM in the data set with Blood [5] came out at 97.7%. Further, the metabolised at 4 h in data set [18] is 38.2%.
The compound `C[S+]([O-])c1ccc(-c2nc(-c3ccc(F)cc3)c(-c3ccncc3)[nH]2)cc1` (configuration not stated) [SB-203580] gave an inhibition at 10 µM in the data set on Blood [5] of 76.5%. Also, the midpoint of inhibition in the data set on Blood [6], the IC50, lay at 3.02 µM.
